24 molecules from US7897593B2, “HIV integrase inhibitors” (priority 2006, dated 2011) can be followed below.

Like-named read-outs stand apart in the source and are kept apart here.

The subject of experiment [1] is recombinant NL-Rluc virus. Nature of the experiment: Inhibition of HIV replication. To be noted: three serum conditions described, the one tabulated is not stated. The format is cell-based.
Experiment [2] deals with T1, purified integrase (Human immunodeficiency virus type 1 group M subtype B, UniProt P12497).
T1 construct: Recombinant integrase (0.26 ng) was incubated with the beads
Nature of the experiment: HIV-Integrase binding assay (competition with radiolabeled integrase inhibitor). To be noted: competition with [3H]-labeled integrase inhibitor; Cheng and Prusoff. How it is done:
HIV-Integrase binding assay. In this assay competitive binding experiments with test compounds and a radiolabeled integrase inhibitor (compound A) are performed against purified integrase. […] Binding reactions were carried out in 96-well white polystyrene assay plates (Corning, #3600). The following was added sequentially to each well: 20 μl of water or 20μl of human serum (Cellgro Cat# 35-060-CL), 5 μl of serially diluted compound (in 50% DMSO/50% integrase SPA buffer), 5 μl of [^3H]-compound I (6,000 cpm/μl in SPA buffer) and 20 μl of bead/DNA/enzyme complex. The plates were shaken for 2 hours and then allowed to sit at room temperature without shaking overnight. The [^3H]-compound I binding was measured using a Topcount scintillation counter. Cheng and Prusoff equations were used to convert the inhibition of compound 1 binding into the corresponding Ki value. Activity equal to A refers to a compound having Ki=0.001 to 0.003 μM while B and C denote compounds having Ki=0.003 to 0.05 μM and Ki≧0.050 μM respectively.

Where [3] appears, read: Human immunodeficiency virus 1, read-out: Antiviral Activity, NL-RLuc virus.
Setting [4] is: read-out: Antiviral Activity, NL-RLuc virus.

`CCOC(=O)C(=O)N1CCC2(C1)OCCn1c2nc(C(=O)NCc2ccc(F)cc2-n2ncnc2C)c(O)c1=O` (stereo not drawn) [Example 47, Ethyl 2-(2-(4-fluoro-2-(5-methyl-1H-1,2,4-triazol-1-yl)benzylcarbamoyl)-3-hydroxy-4-oxo-6,7-dihydro-4H-spiro[pyrimido[2,1-c][1,4]oxazine-9,3′-pyrrolidine]-1′-yl)-2-oxoacetate]: the EC50 in experiment [1] (setting [3]) is more than 0.1 µM. The molecule also registered an inhibition constant (Ki) in experiment [2] of 0.003 to 0.05 µM.

`O=C(NCc1ccc(F)cc1)c1nc2n(c(=O)c1O)CCCOC21CCN(C(=O)OCc2ccccc2)CC1` [Example 48]: the EC50 in experiment [1] (setting [3]) was in the range of 0.01 to 0.1 µM. The Ki in experiment [2] is 0.001 to 0.003 µM.

For `O=C(NCc1ccc(F)cc1N1CCCCS1(=O)=O)c1nc2n(c(=O)c1O)CCCOC21CCN(C(=O)OCc2ccccc2)CC1` [Example 51], the EC50 in experiment [1] (setting [3]) fell in the range of 0.001 to 0.01 µM. The same molecule displayed an inhibition constant Ki in experiment [2] of 0.003 to 0.05 µM.

`Cc1ncnn1-c1cc(F)ccc1CNC(=O)c1nc2n(c(=O)c1O)CCCOC21CCN(C(=O)OCc2ccccc2)CC1` [Example 53]: in experiment [1] (setting [3]), the EC50 lay within 0.001 to 0.01 µM. This molecule yielded a Ki in experiment [2] of 0.003 to 0.05 µM.

For the molecule `Cc1ncnn1-c1cc(F)ccc1CNC(=O)c1nc2n(c(=O)c1O)CCOCC21CCN(C(=O)OCc2ccccc2)CC1` [Example 55], the EC50 in experiment [1] (setting [3]) was in the range of 0.001 to 0.01 µM. The Ki in experiment [2] was in the range of 0.003 to 0.05 µM.

In the case of `CC(=O)N1CCC2(CC1)OCCCn1c2nc(C(=O)NCc2ccc(F)cc2)c(O)c1=O` [Example 57, 1-Acetyl-N-(4-fluorobenzyl)-3′-hydroxy-4′-oxo-4′,6′,7′,8′-tetrahydrospiro-[piperidine-4,10′-pyrimido[2,1-c][1,4]oxazepine]-2′-carboxamide], the EC50 in experiment [1] (setting [3]) lay in the range of 0.001 to 0.01 µM. The inhibitory constant (Ki) in experiment [2] lay in the range of 0.001 to 0.003 µM.

For the molecule `COC(=O)N1CCC2(CC1)OCCCn1c2nc(C(=O)NCc2ccc(F)cc2)c(O)c1=O` [Example 58, Methyl 2′-(4-fluorobenzylcarbamoyl)-3′-hydroxy-4′-oxo-4′,6′,7′,8′-tetrahydrospiro[piperidine-4,10′-pyrimido[2,1-c][1,4]oxazepine]-1-carboxylate], in experiment [1] (setting [3]), the EC50 is 0.001 to 0.01 µM. Moreover, in experiment [2], the inhibition constant (Ki) lay within 0.001 to 0.003 µM.

Turning to `CN(C)C(=O)N1CCC2(CC1)OCCCn1c2nc(C(=O)NCc2ccc(F)cc2)c(O)c1=O` [Example 59], in experiment [1] (setting [3]), the EC50 fell in the range of 0.001 to 0.01 µM. In experiment [2], this molecule yielded an inhibition constant Ki of 0.001 to 0.003 µM.

For the molecule `CS(=O)(=O)N1CCC2(CC1)OCCCn1c2nc(C(=O)NCc2ccc(F)cc2)c(O)c1=O` [Example 60], in experiment [1] (setting [3]), the EC50 lay in the range of 0.001 to 0.01 µM. In experiment [2], this molecule came in with an inhibition constant (Ki) of 0.001 to 0.003 µM.

Consider `CN(C)S(=O)(=O)N1CCC2(CC1)OCCCn1c2nc(C(=O)NCc2ccc(F)cc2)c(O)c1=O` [Example 61], for which the EC50 in experiment [1] (setting [3]) was in the range of 0.001 to 0.01 µM. Moreover, the Ki in experiment [2] lay within 0.001 to 0.003 µM.

On to `Cc1ncnn1-c1cc(F)ccc1CNC(=O)c1nc2n(c(=O)c1O)CCCOC21CCN(S(C)(=O)=O)CC1` [Example 62], for which the EC50 in experiment [1] (setting [4]) lay within 0.01 to 0.1 µM. The Ki in experiment [2] was in the range of 0.003 to 0.05 µM.

As to `CC(=O)N1CCC2(CC1)OCCCn1c2nc(C(=O)NCc2ccc(F)cc2-n2ncnc2C)c(O)c1=O` [Example 63], in experiment [1] (setting [3]), the EC50 was in the range of 0.01 to 0.1 µM. For the same molecule, in experiment [2], the inhibition constant Ki is 0.003 to 0.05 µM.

Turning to `COC(=O)N1CCC2(CC1)OCCCn1c2nc(C(=O)NCc2ccc(F)cc2-n2ncnc2C)c(O)c1=O` [Example 64], the EC50 in experiment [1] (setting [3]) is 0.001 to 0.01 µM. Moreover, in experiment [2], the Ki is 0.003 to 0.05 µM.

Regarding `Cc1ncnn1-c1cc(F)ccc1CNC(=O)c1nc2n(c(=O)c1O)CCCOC21CCN(C(=O)N(C)C)CC1` [Example 65], the EC50 in experiment [1] (setting [3]) is 0.001 to 0.01 µM. The Ki in experiment [2] lay in the range of 0.003 to 0.05 µM.

As for `Cc1ncnn1-c1cc(F)ccc1CNC(=O)c1nc2n(c(=O)c1O)CCCOC21CCN(S(=O)(=O)N(C)C)CC1` [Example 66], in experiment [1] (setting [3]), the EC50 was in the range of 0.001 to 0.01 µM. The molecule also gave a Ki in experiment [2] of 0.003 to 0.05 µM.

As for `Cc1nnc(C(=O)N2CCC3(CC2)OCCCn2c3nc(C(=O)NCc3ccc(F)cc3-n3ncnc3C)c(O)c2=O)o1` [Example 67], the EC50 in experiment [1] (setting [3]) is 0.01 to 0.1 µM. Besides, the Ki in experiment [2] was 0.003 to 0.05 µM.

`CN(C)S(=O)(=O)N1CCC2(CC1)COCCn1c2nc(C(=O)NCc2ccc(F)cc2)c(O)c1=O` [Example 68]: in experiment [1] (setting [3]), the EC50 is 0.01 to 0.1 µM. In experiment [2], this molecule had a Ki of 0.003 to 0.05 µM.

With `CC(=O)N1CCC2(CC1)COCCn1c2nc(C(=O)NCc2ccc(F)cc2-n2ncnc2C)c(O)c1=O` [Example 69], the EC50 in experiment [1] (setting [3]) was more than 0.1 µM. In experiment [2], the inhibition constant Ki lay in the range of 0.003 to 0.05 µM.

On to `Cc1ncnn1-c1cc(F)ccc1CNC(=O)c1nc2n(c(=O)c1O)CCOCC21CCN(S(=O)(=O)N(C)C)CC1` [Example 70], for which the EC50 in experiment [1] (setting [3]) was in the range of 0.01 to 0.1 µM. Further, in experiment [2], the Ki is 0.003 to 0.05 µM.

With `Cc1ncnn1-c1cc(F)ccc1CNC(=O)c1nc2n(c(=O)c1O)CCOCC21CCN(C(=O)N(C)C)CC1` [Example 71], the EC50 in experiment [1] (setting [3]) is 0.01 to 0.1 µM. For the same molecule, the Ki in experiment [2] fell in the range of 0.003 to 0.05 µM.

Take `COC(=O)N1CCC2(CC1)COCCn1c2nc(C(=O)NCc2ccc(F)cc2-n2ncnc2C)c(O)c1=O` [Example 72]: in experiment [1] (setting [3]), the EC50 is 0.01 to 0.1 µM. For the same molecule, in experiment [2], the inhibition constant Ki was in the range of 0.003 to 0.05 µM.

As for `Cc1ncnn1-c1cc(F)ccc1CNC(=O)c1nc2n(c(=O)c1O)CCCOC21CCN(S(C)(=O)=O)CC1` [Example 73], in experiment [1] (setting [4]), the EC50 is more than 0.1 µM. For the same molecule, in experiment [2], the Ki lay in the range of 0.003 to 0.05 µM.

In the case of `Cc1ncnn1-c1cc(F)ccc1CNC(=O)c1nc2n(c(=O)c1O)CCCOC21CCN(C(=O)C(=O)N(C)C)CC1` [Example 74, 1-(2-(Dimethylamino)-2-oxoacetyl)-N-(4-fluoro-2-(5-methyl-1H-1,2,4-triazol-1-yl)benzyl)-3′-hydroxy-4′-oxo-4′,6′,7′,8′-tetrahydrospiro[piperidine-4,10′-pyrimido[2,1-c][1,4]oxazepine]-2′-carboxamide], in experiment [1] (setting [3]), the EC50 is more than 0.1 µM. Moreover, in experiment [2], the inhibition constant (Ki) was 0.003 to 0.05 µM.

On to `CN(C)C(=O)C(=O)N1CCC2(CC1)OCCCn1c2nc(C(=O)NCc2ccc(F)cc2)c(O)c1=O` [Example 75, 1-(2-(Dimethylamino)-2-oxoacetyl)-N-(4-fluorobenzyl)-3′-hydroxy-4′-oxo-4′,6′,7′,8′-tetrahydrospiro[piperidine-4,10′-pyrimido[2,1-c][1,4]oxazepine]-2′-carboxamide], for which the EC50 in experiment [1] (setting [3]) was 0.01 to 0.1 µM. The molecule further showed a Ki in experiment [2] of 0.003 to 0.05 µM.

Broadly, the Ki is a measure of affinity in units of concentration, obtained from inhibition or displacement.
